Laboratory results published in patent US6747033B2, “Fungicidal triazolopyrimid-7-ylideneamines” (BASF Aktiengesellschaft, priority 2000, dated 2004).
Like-named read-outs stand apart in the source and are kept apart here.

Columns and labels:
[1] = system: Venturia inaequalis; assay: In vivo fungicidal activity, Apple Scab (AS); further: ranges in brackets are in %
[2] = system: Plasmopara viticola; assay: In vivo fungicidal activity, Grape downy mildew (GDM); further: ranges in brackets are in %
[3] = system: Botrytis cinera; assay: In vivo fungicidal activity, Pepper Botrytis (PB); further: ranges in brackets are in %
[4] = system: Pyricularia grisea f. sp. oryzae; format: in vivo; details: Rice Blast
[5] = system: Cercospora beticola; assay: In vivo fungicidal activity, Sugar Beet Cercospora (SBC); further: ranges in brackets are in %
[6] = system: Alternara solani; assay: In vivo fungicidal activity, Tomato early blight (TEB); further: ranges in brackets are in %
[7] = system: Blumeria graminis; assay: In vivo fungicidal activity, Wheat powdery mildew (WPM); further: ranges in brackets are in %
[8] = system: Pseudocercosporella herpotrichoides; assay: In vitro fungicidal activity, Cereal eye spot (PSDCHE); format: cell-based; set-up: key: 0: None; 3: slight; 5: moderate; 7: severe; 9: complete; details: 3-7 days of incubation
Experimental: (§1) Test compounds are dissolved in acetone to give concentrations of 25, 10 and 1 ppm and are added to individual cell Walls (24-cell-well plates, Corning), which were previously filled with a suspension of ground plates, Corning), which were previously filled with a suspension of ground fungal mycelium in a chemically defined growth medium. After 3-7 days of incubation, inhibition of […] growth is recorded using the following scale: The data obtained are shown in Table II. [table]

[9] = system: Pythium ultimum; assay: In vitro fungicidal activity, Fruit rot (PYTHUL); format: cell-based; set-up: key: 0: None; 3: slight; 5: moderate; 7: severe; 9: complete; details: 3-7 days of incubation
Experimental: as §1

[10] = system: Rhizoctonia solani; assay: In vitro fungicidal activity, Rice sheath blight (RHIZSO); format: cell-based; set-up: key: 0: None; 3: slight; 5: moderate; 7: severe; 9: complete; details: 3-7 days of incubation
Experimental: as §1

Row | Molecule | AS disease control rating ([1]; 12.5 ppm spray) | AS disease control rating ([1]; 50 ppm spray) | AS disease control rating ([1]; 200 ppm spray) | GDM disease control rating ([2]; 12.5 ppm spray) | GDM disease control rating ([2]; 50 ppm spray) | GDM disease control rating ([2]; 200 ppm spray) | PB disease control rating ([3]; 12.5 ppm spray) | PB disease control rating ([3]; 50 ppm spray) | PB disease control rating ([3]; 200 ppm spray) | RB disease control rating ([4]; 12.5 ppm spray) | RB disease control rating ([4]; 50 ppm spray) | RB disease control rating ([4]; 200 ppm spray) | SBC disease control rating ([5]; 12.5 ppm spray) | SBC disease control rating ([5]; 50 ppm spray) | SBC disease control rating ([5]; 200 ppm spray) | TEB disease control rating ([6]; 12.5 ppm spray) | TEB disease control rating ([6]; 50 ppm spray) | TEB disease control rating ([6]; 200 ppm spray) | WPM disease control rating ([7]; 12.5 ppm spray) | WPM disease control rating ([7]; 50 ppm spray) | also measured
1 | CCCOc1cc(F)c(-c2c(Cl)nc3n(CCC)cnn3c2=NC(C)C(F)(F)F)c(F)c1 (stereo not drawn) [Example 9] | 0 (0) | 6 (75-89) | 6 (75-89) | 5 (60-74) | 3 (30-44) | 3 (30-44) | 2 (15-29) | 1 (1-14) | 2 (15-29) | 0 (0) | 3 (30-44) | 4 (45-59) | 8 (96-99) | 8 (96-99) | 8 (96-99) | 6 (75-89) | 8 (96-99) | 9 (100) | 2 (15-29) | 6 (75-89) | WPM disease control rating ([7]; 200 ppm spray): 7 (90-95); PSDCH inhibition of mycelial growth rating ([8]; 1 ppm): 3; PSDCH inhibition of mycelial growth rating ([8]; 10 ppm): 3; PSDCH inhibition of mycelial growth rating ([8]; 25 ppm): 5; PYTHU inhibition of mycelial growth rating ([9]; 1 ppm): 0; PYTHU inhibition of mycelial growth rating ([9]; 10 ppm): 0; PYTHU inhibition of mycelial growth rating ([9]; 25 ppm): 0; RHIZSO inhibition of mycelial growth rating ([10]; 1 ppm): 7; RHIZSO inhibition of mycelial growth rating ([10]; 10 ppm): 7; RHIZSO inhibition of mycelial growth rating ([10]; 25 ppm): 7
2 | CCn1cnn2c(=NC(C)C(F)(F)F)c(-c3c(F)cc(F)cc3F)c(Cl)nc12 (stereo not drawn) [Example 10] | 0 (0) | 0 (0) | 6 (75-89) | 0 (0) | 0 (0) | 0 (0) | 4 (45-59) | 0 (0) | 0 (0) | 0 (0) | 4 (45-59) | 6 (75-89) | 3 (30-44) | 6 (75-89) | 6 (75-89) | 0 (0) | 4 (45-59) | 5 (60-74) | 0 (0) | 0 (0) | WPM disease control rating ([7]; 200 ppm spray): 0 (0); PSDCH inhibition of mycelial growth rating ([8]; 1 ppm): 0; PSDCH inhibition of mycelial growth rating ([8]; 10 ppm): 0; PSDCH inhibition of mycelial growth rating ([8]; 25 ppm): 0; PYTHU inhibition of mycelial growth rating ([9]; 1 ppm): 0; PYTHU inhibition of mycelial growth rating ([9]; 10 ppm): 3; PYTHU inhibition of mycelial growth rating ([9]; 25 ppm): 5; RHIZSO inhibition of mycelial growth rating ([10]; 1 ppm): 0; RHIZSO inhibition of mycelial growth rating ([10]; 10 ppm): 5; RHIZSO inhibition of mycelial growth rating ([10]; 25 ppm): 5
3 | CCCn1cnn2c(=NC(C)C(F)(F)F)c(-c3c(F)cc(F)cc3F)c(Cl)nc12 (stereo not drawn) [Example 11] | 0 (0) | 6 (75-89) | 7 (90-95) | 0 (0) | 0 (0) | 3 (30-44) | 0 (0) | 0 (0) | 0 (0) | 0 (0) | 3 (30-44) | 4 (45-59) | 0 (0) | 0 (0) | 3 (30-44) | 0 (0) | 0 (0) | 0 (0) | 0 (0) | 0 (0) | WPM disease control rating ([7]; 200 ppm spray): 0 (0); PSDCH inhibition of mycelial growth rating ([8]; 1 ppm): 0; PSDCH inhibition of mycelial growth rating ([8]; 10 ppm): 0; PSDCH inhibition of mycelial growth rating ([8]; 25 ppm): 0; PYTHU inhibition of mycelial growth rating ([9]; 1 ppm): 0; PYTHU inhibition of mycelial growth rating ([9]; 10 ppm): 1; PYTHU inhibition of mycelial growth rating ([9]; 25 ppm): 1; RHIZSO inhibition of mycelial growth rating ([10]; 1 ppm): 0; RHIZSO inhibition of mycelial growth rating ([10]; 10 ppm): 0; RHIZSO inhibition of mycelial growth rating ([10]; 25 ppm): 0
4 | N-[5-chloro-3-methyl-6-(2,4,6-trifluorophenyl)-4H-[1,2,4]triazolo[1,5-α]pyrimidin-7-ylidene]-N-(2,2,2-trifluoroethyl)-amine [Example 1B] | 4 (45-59) | 4 (45-59) | 5 (60-74) | 0 (0) | 0 (0) | 7 (90-95) | 0 (0) | 0 (0) | 6 (75-89) | 0 (0) | 0 (0) | 5 (60-74) | 0 (0) | 6 (75-89) | 6 (75-89) | 0 (0) | 2 (15-29) | 4 (45-59) | 0 (0) | 0 (0) | WPM disease control rating ([7]; 200 ppm spray): 0 (0); PSDCH inhibition of mycelial growth rating ([8]; 1 ppm): 0; PSDCH inhibition of mycelial growth rating ([8]; 10 ppm): 1; PSDCH inhibition of mycelial growth rating ([8]; 25 ppm): 3; PYTHU inhibition of mycelial growth rating ([9]; 1 ppm): 0; PYTHU inhibition of mycelial growth rating ([9]; 10 ppm): 1; PYTHU inhibition of mycelial growth rating ([9]; 25 ppm): 5; RHIZSO inhibition of mycelial growth rating ([10]; 1 ppm): 5; RHIZSO inhibition of mycelial growth rating ([10]; 10 ppm): 5; RHIZSO inhibition of mycelial growth rating ([10]; 25 ppm): 5
